Data from US5508174A, “Method and micro roller bottle for in vitro exposure of cells to volatile chemicals” (The United States of America as represented by the …, priority 1993, dated 1996).

Tested on: Primary hepatocytes
Assay: in vitro exposure of primary hepatocytes to volatile HCFCs, enzyme leakage (LDH and AST)
Type: cell-based
Conditions: 10,000, 100,000 and 500,000 ppm, 24 hours
Text: Any adherent cell line or adherent primary cell type can be used in this system. Adherent cell lines may attach to glass walls, i.e., the inner surface of a glass body 10. When cells reach confluency, exposure can bc initiated. […] This can be accomplished by attaching primary cells to a sterile strip of inert mesh 38, e.g., nylon mesh, precoated with an attachment factor such as collagen. The mesh is carefully rolled and placed into body 10 through one of the openings 14 or 16. After the mesh is unrolled within body 10, the openings 14 and 1.6 are sealed using the septa or the valve 22 previously described.
The cells to be tested are washed and isolated using known procedures. The washed isolated cells are resuspended at a suitable cell density, e.g., about 10^6 to 10^7 /ml, in a suitable culture medium, e.g., Williams E or Leibovitz's-15. The culture medium may be supplemented with a suitable media supplement, e.g., fetal calf serum, dexamethasone, etc. The suspended cells are distributed over the mesh or over the inner surface of device 10. The cells are allowed to attach for a suitable period. If the mesh is used, it is rolled into a narrow tube, inserted into device 10 and allowed to unroll. Culture medium is added to the device 10 to a desired quantity. Scaling means 18 and 20 are inserted into openings 14 and 16. […]
A syringe needle is inserted through one of the sealing means 18 or 20 to provide egress for excess atmosphere within device 10. […] A sample of the atmosphere within device 10 is taken from each device prepared for testing and analyzed by gas-chromatography (GC) to determine the actual concentration of the volatile compound in the device.
The thus-prepared test device is placed on a roller apparatus in an incubator at a suitable temperature. […] At the termination exposure, a second sample of the atmosphere should be taken and analyzed by GC to ensure that the volatile compound is present at a concentration of at least about 95% of that measured initially. […]

SMILES	relative rank ordering of toxicity, based on lactate dehydrogenase (LDH) and S-amino-transferase (AST) enzyme leakages
CC(F)(F)Cl [HCFC-142b, 1-chloro-1,1-difluoroethane]	HCFC-123>HCFC-123/142b>HCFC-124>HCFC-142b
FC(Cl)C(F)(F)F (stereo not drawn) [HCFC-124, 1-chloro-1,2,2,2-trifiuoroethane]	HCFC-123>HCFC-123/142b>HCFC-124>HCFC-142b
FC(F)(F)C(Cl)Cl [HCFC-123, 2,2-dichloro-1,1,1-trifluoroethane]	HCFC-123>HCFC-123/142b>HCFC-124>HCFC-142b
